{"source": "patent US9187441B2", "about": "“p53-Mdm2 antagonists” (University of Pittsburgh—Of the Commonwealth System of …, priority 2010, dated 2015)", "key": {"Mdm2 [1]": {"target": "T1, Mdm2 (Homo sapiens (Human), UniProt Q00987)", "T1 sequence (Q00987 whole entry)": "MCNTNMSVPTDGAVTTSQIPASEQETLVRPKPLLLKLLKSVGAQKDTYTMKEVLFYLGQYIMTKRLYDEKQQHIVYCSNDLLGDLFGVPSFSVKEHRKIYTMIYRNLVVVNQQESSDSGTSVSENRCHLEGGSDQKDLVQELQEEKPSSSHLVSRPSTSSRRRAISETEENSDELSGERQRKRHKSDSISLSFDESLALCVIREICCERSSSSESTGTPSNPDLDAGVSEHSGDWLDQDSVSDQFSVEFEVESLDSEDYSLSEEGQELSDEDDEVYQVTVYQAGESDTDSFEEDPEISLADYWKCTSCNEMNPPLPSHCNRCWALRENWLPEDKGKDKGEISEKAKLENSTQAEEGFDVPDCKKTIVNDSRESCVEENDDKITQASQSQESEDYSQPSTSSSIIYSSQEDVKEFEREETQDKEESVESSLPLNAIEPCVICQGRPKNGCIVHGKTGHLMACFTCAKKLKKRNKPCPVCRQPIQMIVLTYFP", "assay": "NMR (AIDA) ligand binding to Mdm2", "details": "Table 8, Formula II compounds, measured by NMR (AIDA)", "method": "All NMR spectra were acquired at 298 K on a Bruker DRX 600 MHz spectrometer equipped with a cryoprobe. Typically, NMR samples contained 0.1-0.2 mM protein in 50 mM KH2PO4 and 50 mM Na2HPO4, pH 7.4, containing 150 mM NaCl and 5 mM β-Mercaptoethanol. Water suppression was carried out using the WATERGATE sequence. NMR data were processed using the Bruker program Xwin-NMR version 3.5. NMR ligand binding experiments were carried out in an analogous way to those previously described. See D'Silva L., et. al., J. Am. Chem. Soc. 2005, 127, 13220-13226 and Popowicz G. M., et. al., Cell Cycle. 2007, 6, 2386-2392. The maximum concentration of DMSO at the end of titration experiments was less than 1%. The pH was maintained constant during the entire titration. The 1H-15N-HSQC spectra were recorded using fast HSQC pulse sequence as described by Mori et. al., J. Magn. Reson. B 1995, 108, 94-98.\nThe binding constants (Ki values), of representative Formula II compounds was determined using fluorescence polarization or NMR spectroscopy and are illustrated in Table 8."}, "Mdm2 [2]": {"target": "T1, Mdm2", "assay": "Fluorescence polarization (FP) competition binding assay with Mdm2"}, "[3]": {"assay": "Water (aqueous) solubility", "assay_type": "physicochemical"}, "[4]": {"details": "Table 8, Formula II compounds, measured by FP"}, "[5]": {"details": "read-out: Ki (inhibition constant), Table 1, compounds 8 (C-2 ethyl esters), FP assay, n.i. = no interaction"}, "[6]": {"details": "Table 1, compounds 8 (C-2 ethyl esters), FP assay, n.i. = no interaction"}}, "data": [{"compound": "CCOC(=O)c1[nH]c2cc(Cl)ccc2c1C(NC(CC(C)C)C(=O)OC)C(=O)NCc1ccccc1", "note": "(stereo in doubt) [KK229, Ethyl 3-(2-(benzylamino)-1-(((R)-1-methoxy-4-methyl-1-oxopentan-2-yl)amino)-2-oxoethyl)-6-chloro-1H-indole-2-carboxylate]", "values": [{"measurement": "Ki", "setting": "Mdm2 [1]", "value": 1.7, "unit": "µM"}]}, {"compound": "CCOC(=O)c1[nH]c2cc(Cl)ccc2c1C(NC(CC(C)C)C(=O)NCCO)C(=O)NCc1ccccc1", "note": "(stereo in doubt) [KK259, Ethyl 3-(2-(benzylamino)-1-(((S)-1-((2-hydroxyethyl)amino)-4-methyl-1-oxopentan-2-yl)amino)-2-oxoethyl)-6-chloro-1H-indole-2-carboxylate]", "values": [{"measurement": "Ki", "setting": "Mdm2 [2]; [4]", "value": 9, "unit": "µM"}]}, {"compound": "CCOC(=O)c1[nH]c2cc(Cl)ccc2c1C(NC(CC(C)C)C(=O)NCCCN1CCOCC1)C(=O)NCc1ccccc1", "note": "(stereo in doubt) [KK261, Ethyl 3-(2-(benzylamino)-1-(((S)-4-methyl-1-((3-morpholinopropyl)amino)-1-oxopentan-2-yl)amino)-2-oxoethyl)-6-chloro-1H-indole-2-carboxylate]", "values": [{"measurement": "Ki", "setting": "Mdm2 [2]; [4]", "value": 11, "unit": "µM"}]}, {"compound": "CC(C)(C)NC(=O)C(c1c(C(=O)O)[nH]c2cc(Cl)ccc12)N(C=O)Cc1cccc(F)c1", "note": "(stereo not shown) [Compound 7C, 3-(2-(tert-butylamino)-1-(N-(3-fluorobenzyl)formamido)-2-oxoethyl)-6-chloro-1H-indole-2-carboxylic acid]", "values": [{"measurement": "Ki", "setting": "Mdm2 [2]", "value": 0.81, "unit": "µM"}]}, {"compound": "CC(C)(C)NC(=O)C(c1c(C(=O)O)[nH]c2cc(Cl)ccc12)N(C=O)Cc1ccccc1F", "note": "(stereo not shown) [Compound 7D, 3-(2-(tert-butylamino)-1-(N-(2-fluorobenzyl)formamido)-2-oxoethyl)-6-chloro-1H-indole-2-carboxylic acid]", "values": [{"measurement": "Ki", "setting": "Mdm2 [2]", "value": 1.7, "unit": "µM"}]}, {"compound": "CC(C)(C)NC(=O)C(c1c(C(=O)O)[nH]c2cc(Cl)ccc12)N(C=O)Cc1cc(F)ccc1F", "note": "(stereo not shown) [Compound 7H, 3-(2-(tert-butylamino)-1-(N-(2,5-difluorobenzyl)formamido)-2-oxoethyl)-6-chloro-1H-indole-2-carboxylic acid]", "values": [{"measurement": "Ki", "setting": "Mdm2 [2]", "value": 2.5, "unit": "µM"}]}, {"compound": "CC(C)(C)NC(=O)C(c1c(C(=O)O)[nH]c2cc(Cl)ccc12)N(C=O)Cc1cc(F)c(F)c(F)c1", "note": "(stereo not shown) [Compound 7M, 3-(2-(tert-butylamino)-2-oxo-1-(N-(3,4,5-trifluorobenzyl)formamido)ethyl)-6-chloro-1H-indole-2-carboxylic acid]", "values": [{"measurement": "solubility", "setting": "[3]; aqueous medium", "value": 850, "unit": "µg/mL"}]}, {"compound": "CCOC(=O)c1[nH]c2cc(Cl)ccc2c1C(C(=O)NCc1ccccc1)N(CC(C)C)C(C)=O", "note": "(stereo not shown) [Compound 8c, Ethyl 3-(2-(benzylamino)-1-(N-isobutylacetamido)-2-oxoethyl)-6-chloro-1H-indole-2-carboxylate]", "values": [{"measurement": "Ki", "setting": "Mdm2 [2]; [5]", "value": 4, "unit": "µM"}]}, {"compound": "CCOC(=O)c1[nH]c2cc(Cl)ccc2c1C(C(=O)NCc1ccccc1)N(Cc1ccccc1)C(C)=O", "note": "(stereo not shown) [Compound 8d, Ethyl 3-(1-(N-benzylacetamido)-2-(benzylamino)-2-oxoethyl)-6-chloro-1H-indole-2-carboxylate]", "values": [{"measurement": "Ki", "setting": "Mdm2 [2]; read-out: Ki (inhibition constant)", "value": 6, "unit": "µM"}]}, {"compound": "CCOC(=O)c1[nH]c2cc(Cl)ccc2c1C(C(=O)NC1CCCCC1)N(Cc1ccc(Cl)c(Cl)c1)C(C)=O", "note": "(stereo not shown) [Compound 8g, Ethyl 6-chloro-3-(2-(cyclohexylamino)-1-(N-(3,4-dichlorobenzyl)acetamido)-2-oxoethyl)-1H-indole-2-carboxylate]", "values": [{"measurement": "Ki", "setting": "Mdm2 [2]; [5]", "value": 9, "unit": "µM"}]}, {"compound": "CCOC(=O)c1[nH]c2cc(Cl)ccc2c1C(C(=O)NC1CCCCC1)N(C=O)Cc1ccc(Cl)cc1", "note": "(stereo not shown) [Compound 8j, Ethyl 6-chloro-3-(1-(N-(4-chlorobenzyl)formamido)-2-(cyclohexylamino)-2-oxoethyl)-1H-indole-2-carboxylate]", "values": [{"measurement": "Ki", "setting": "Mdm2 [2]; [5]", "value": 50, "unit": "µM"}]}, {"compound": "CCOC(=O)c1[nH]c2cc(Cl)ccc2c1C(C(=O)NC1CCCCC1)N(C=O)Cc1ccc(F)cc1", "note": "(stereo not shown) [Compound 8k, Ethyl 6-chloro-3-(2-(cyclohexylamino)-1-(N-(4-fluorobenzyl)formamido)-2-oxoethyl)-1H-indole-2-carboxylate]", "values": [{"measurement": "Ki", "setting": "Mdm2 [2]; [5]", "value": 30, "unit": "µM"}]}, {"compound": "CCOC(=O)c1[nH]c2cc(Cl)ccc2c1C(C(=O)NC(C)(C)C)N(C=O)Cc1ccc(-c2ccccc2)cc1", "note": "(stereo not shown) [Compound 8s, Ethyl 3-(1-(N-(biphenyl-4-ylmethyl)formamido)-2-(tert-butylamino)-2-oxoethyl)-6-chloro-1H-indole-2-carboxylate]", "values": [{"measurement": "Ki (inhibition constant)", "setting": "Mdm2 [2]; [6]", "value": "n.i."}]}, {"compound": "CCOC(=O)c1[nH]c2cc(Cl)ccc2c1C(C(=O)NC(C)(C)C)N(C=O)Cc1ccc(Oc2ccccc2)cc1", "note": "(stereo not shown) [Compound 8t, Ethyl 3-(2-(tert-butylamino)-2-oxo-1-(N-(4-phenoxybenzyl)formamido)ethyl)-6-chloro-1H-indole-2-carboxylate]", "values": [{"measurement": "Ki (inhibition constant)", "setting": "Mdm2 [2]; [6]", "value": "n.i."}]}, {"compound": "CC(C)(C)NC(=O)C(c1c(C(=O)O)[nH]c2cc(Cl)ccc12)N(C=O)Cc1ccc(-c2ccccc2)cc1", "note": "(stereo not shown) [Compound 9s, 3-(1-(N-(biphenyl-4-ylmethyl)formamido)-2-(tert-butylamino)-2-oxoethyl)-6-chloro-1H-indole-2-carboxylic acid]", "values": [{"measurement": "Ki", "setting": "Mdm2 [2]; read-out: Ki (inhibition constant), Table 2, compounds 9 (free C-2 carboxylic acids), FP assay", "value": 2.5, "unit": "µM"}]}, {"compound": "CCOC(=O)c1[nH]c2cc(Cl)ccc2c1C(N[C@H](C(=O)OC)C(C)C)C(=O)NCc1ccccc1", "note": "(stereo partly drawn) [KK228, Ethyl 3-(2-(benzylamino)-1-(((S)-1-methoxy-3-methyl-1-oxobutan-2-yl)amino)-2-oxoethyl)-6-chloro-1H-indole-2-carboxylate]", "values": [{"measurement": "Ki", "setting": "Mdm2 [2]; [4]", "value": "< 1", "unit": "µM"}]}, {"compound": "CCOC(=O)c1[nH]c2cc(Cl)ccc2c1C(N[C@@H](CC(C)C)C(=O)NCCN1CCOCC1)C(=O)NCc1ccccc1", "note": "(stereo partly drawn) [KK242, Ethyl 3-(2-(benzylamino)-1-(((S)-4-methyl-1-((2-morpholinoethyl)amino)-1-oxopentan-2-yl)amino)-2-oxoethyl)-6-chloro-1H-indole-2-carboxylate]", "values": [{"measurement": "Ki", "setting": "Mdm2 [2]; [4]", "value": 10, "unit": "µM"}]}, {"compound": "CCOC(=O)c1[nH]c2cc(Cl)ccc2c1C(NC(CC(C)C)C(=O)O)C(=O)NCc1ccccc1", "note": "(stereo not shown) [KK272, 2-((2-(benzylamino)-1-(6-chloro-2-(ethoxycarbonyl)-1H-indol-3-yl)-2-oxoethyl)amino)-4-methylpentanoic acid]", "values": [{"measurement": "Ki", "setting": "Mdm2 [2]; [4]", "value": 1.4, "unit": "µM"}]}, {"compound": "CC(C)CC(NC(C(=O)NCc1ccccc1)c1c(C(=O)O)[nH]c2cc(Cl)ccc12)C(=O)NCCN1CCOCC1", "note": "(stereo not shown) [KK273, 3-(2-(benzylamino)-1-(4-methyl-1-(2-morpholinoethylamino)-1-oxopentan-2-ylamino)-2-oxoethyl)-6-chloro-1H-indole-2-carboxylic acid]", "values": [{"measurement": "Ki", "setting": "Mdm2 [1]", "value": 0.4, "unit": "µM"}]}, {"compound": "CC(C)CC(NC(C(=O)NCc1ccccc1)c1c(C(=O)O)[nH]c2cc(Cl)ccc12)C(=O)NCCO", "note": "(stereo not shown) [KK278, 3-(2-(benzylamino)-1-((1-((2-hydroxyethyl)amino)-4-methyl-1-oxopentan-2-yl)amino)-2-oxoethyl)-6-chloro-1H-indole-2-carboxylic acid]", "values": [{"measurement": "Ki", "setting": "Mdm2 [2]; [4]", "value": 9, "unit": "µM"}]}, {"compound": "CC(C)CC(NC(C(=O)NCc1ccccc1)c1c(C(=O)O)[nH]c2cc(Cl)ccc12)C(=O)NCCCN1CCOCC1", "note": "(stereo not shown) [KK279, 3-(2-(benzylamino)-1-((4-methyl-1-((3-morpholinopropyl)amino)-1-oxopentan-2-yl)amino)-2-oxoethyl)-6-chloro-1H-indole-2-carboxylic acid]", "values": [{"measurement": "Ki", "setting": "Mdm2 [2]; [4]", "value": 7, "unit": "µM"}]}, {"compound": "COc1ccc(C2=N[C@@H](c3ccc(Cl)cc3)[C@@H](c3ccc(Cl)cc3)N2C(=O)N2CCNC(=O)C2)c(OC(C)C)c1", "note": "[Nutlin-3a, reference compound]", "values": [{"measurement": "aqueous solubility", "setting": "[3]", "value": 100, "unit": "µg/mL"}]}]}
